Consider three sequences from US20040265803A1, “Genes and their genetic products pertinent to microsatellite instable (msi+) tumours” (priority 2000, published 2004).

The test system of the test is CD8+ T cells. As to the kind of experiment: IFN-gamma ELISpot analysis of T cells stimulated with neopeptide-loaded autologous CD40-activated B cells. Particulars: T cells from HLA-A0201-positive healthy proband, weekly stimulation. The test is classed as cell-based, human.

As for “FLSASHFLL [peptide #15, HLA-A0201-restricted neopeptide encoded by mutated cMNR]”, the “reactivity (IFN-gamma ELISpot)” value (day 35) was 1123 specific cells/1,000,000 cells. Take “SLYKFSPFPL [peptide #16, HLA-A0201-restricted neopeptide encoded by mutated cMNR]”: under “day 28”, the “reactivity (IFN-gamma ELISpot)” value was 1760 specific cells/1,000,000 cells. For “TLSPGWSAV [peptide #21, HLA-A0201-restricted neopeptide encoded by mutated cMNR]”, the “reactivity (IFN-gamma ELISpot)” value (day 35) is given as 733 specific cells/1,000,000 cells.
